Measurements taken from US12595253B2, “Benzamides of pyrazolylamino-pyrimidinyl derivatives, and compositions and methods thereof” (LYNK PHARMACEUTICALS CO. LTD., priority 2019, dated 2026).
Read-outs that look alike come from different tables or passages of the source. Values belong to the compound of their own block, whether it stands above or below them.

Key:
[1] = molecular target: T1, CYP2C9 (Homo sapiens, UniProt P11712); experiment: CYPs inhibition in pooled human liver microsomes, probe substrate Diclofenac; type: in vitro ADME
T1 construct: 0.2 mg/mL human liver microsomes was pre-incubated in 180 μL reaction mixture; from tissue; host or cells: pooled human liver microsomes
Protocol: (§1) The inhibitory potential of test articles in pooled human liver microsomes was evaluated by the method using a cocktail of CYP substrates. […] For the negative control well, the test articles was replaced with 20 μL reaction buffer. After 10 min of pre-incubation at 37° C., 20 μL 10 mM NADPH cofactor was added to the pre-reaction mixtures. After another 10 min incubation, the reaction was stopped by adding 400 μL of ice cold acetonitrile solution containing tolbutamide and labetalol served as internal standards. The incubation mixtures were centrifuged at 4000×g for 20 min, and then the supernatants were analyzed by LC-MS/MS after dilution. SigmaPlot was applied to plot % control activity versus the test compound concentrations, and for non-linear regression analysis of the data. IC50 values of test articles were determined using 3-parameter logistic equation.

[2] = molecular target: T2, JAK1 (Homo sapiens, UniProt P23458); experiment: JAK1 microfluidic kinase assay (Caliper EZ Reader II, FAM labeled peptide substrate); type: biochemical
T2 construct: purchased Carna Biosciences
Summary of the method: (§2)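 Microfluidic mobility-shift assay on Caliper EZ Reader II, FAM-labelled peptide phosphorylation, in 50 mM HEPES, 0.01% Brij35, 10 mM MgCl2, 2 mM DTT, 1% DMSO; enzyme conditions set for 10% substrate conversion.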

[3] = molecular target: T3, CYP1A2 (Homo sapiens, UniProt P05177); experiment: CYPs inhibition in pooled human liver microsomes, probe substrate Phenacetin; type: in vitro ADME
T3 construct: 0.2 mg/mL human liver microsomes was pre-incubated in 180 μL reaction mixture; from tissue; host or cells: pooled human liver microsomes
T3 sequence (P05177 1-516): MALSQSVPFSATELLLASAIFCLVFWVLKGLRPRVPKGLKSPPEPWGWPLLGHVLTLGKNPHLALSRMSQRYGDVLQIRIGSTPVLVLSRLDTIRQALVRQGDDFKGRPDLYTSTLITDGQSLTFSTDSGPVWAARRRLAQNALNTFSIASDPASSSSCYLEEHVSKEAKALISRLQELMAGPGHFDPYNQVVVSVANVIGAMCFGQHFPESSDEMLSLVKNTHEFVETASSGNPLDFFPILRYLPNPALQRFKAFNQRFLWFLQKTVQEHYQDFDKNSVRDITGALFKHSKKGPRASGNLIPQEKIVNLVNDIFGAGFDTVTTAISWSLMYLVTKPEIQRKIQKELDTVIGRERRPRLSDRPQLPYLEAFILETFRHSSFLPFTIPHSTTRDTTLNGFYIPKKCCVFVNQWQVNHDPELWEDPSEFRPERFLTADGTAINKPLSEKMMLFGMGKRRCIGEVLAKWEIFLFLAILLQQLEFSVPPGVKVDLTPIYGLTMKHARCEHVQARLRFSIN
Protocol: as §1

[4] = molecular target: T4, TYK2 (Homo sapiens, UniProt P29597); experiment: TYK2 microfluidic kinase assay (Caliper EZ Reader II, FAM labeled peptide substrate); type: biochemical; details: IC50 TYK2 ([…]) (1 mM ATP), TYK2 […], 1 mM ATP
T4 construct: purchased Carna Biosciences
Summary of the method: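 First, serially diluted compounds (top 5 μM, 3-fold steps, 1% DMSO final) sit with enzyme 10 min at ambient temperature. Then the kinase reaction runs in HEPES buffer with 10 mM MgCl2 for 120, 20, 30 or 10 min (JAK1, JAK2, JAK2V617F, TYK2). Finally 50 mM EDTA quenches it.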

[5] = molecular target: T5, JAK2 (Homo sapiens, UniProt O60674); experiment: JAK2 microfluidic kinase assay (Caliper EZ Reader II, FAM labeled peptide substrate); type: biochemical
T5 construct: purchased Carna Biosciences
Summary of the method: as §2

[6] = molecular target: T6, CYP2C19 (Homo sapiens, UniProt P33261); experiment: CYPs inhibition in pooled human liver microsomes, probe substrate S-mephenytoin; type: in vitro ADME
T6 construct: 0.2 mg/mL human liver microsomes was pre-incubated in 180 μL reaction mixture; from tissue; host or cells: pooled human liver microsomes
Protocol: as §1

[7] = molecular target: T7, JAK2V617F (Homo sapiens, UniProt O60674, V617F); experiment: JAK2V617F microfluidic kinase assay (Caliper EZ Reader II, FAM labeled peptide substrate); type: biochemical; details: JAK2V617F 2.5 nM, 1 mM ATP
T7 construct: purchased Carna Biosciences
Summary of the method: as §2

[8] = IC50 JAK1 (5 nM) (1 m MATP), JAK1 5 nM, 1 mM ATP
[9] = IC50 JAK2 ([…]) (1 mM ATP), 1 mM ATP
[10] = IC50 JAK2 ([…]) (Km ATP), Km ATP
[11] = IC50 JAK1 (10 nM) (Km ATP), JAK1 10 nM, Km ATP

T6 sequence (P33261 whole entry): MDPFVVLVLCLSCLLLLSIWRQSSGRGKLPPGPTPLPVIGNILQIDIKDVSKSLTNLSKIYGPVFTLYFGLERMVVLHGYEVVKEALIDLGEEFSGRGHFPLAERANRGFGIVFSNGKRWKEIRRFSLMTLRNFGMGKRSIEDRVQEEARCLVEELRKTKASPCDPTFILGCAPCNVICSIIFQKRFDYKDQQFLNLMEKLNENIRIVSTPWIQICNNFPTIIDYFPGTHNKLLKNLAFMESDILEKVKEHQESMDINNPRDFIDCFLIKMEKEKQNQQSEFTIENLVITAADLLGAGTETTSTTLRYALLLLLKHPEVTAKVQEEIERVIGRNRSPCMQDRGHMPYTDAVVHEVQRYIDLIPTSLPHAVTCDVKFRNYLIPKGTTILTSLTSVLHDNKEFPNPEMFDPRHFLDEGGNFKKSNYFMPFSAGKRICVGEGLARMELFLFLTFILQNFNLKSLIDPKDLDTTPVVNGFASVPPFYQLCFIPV
T1 sequence (P11712 whole entry): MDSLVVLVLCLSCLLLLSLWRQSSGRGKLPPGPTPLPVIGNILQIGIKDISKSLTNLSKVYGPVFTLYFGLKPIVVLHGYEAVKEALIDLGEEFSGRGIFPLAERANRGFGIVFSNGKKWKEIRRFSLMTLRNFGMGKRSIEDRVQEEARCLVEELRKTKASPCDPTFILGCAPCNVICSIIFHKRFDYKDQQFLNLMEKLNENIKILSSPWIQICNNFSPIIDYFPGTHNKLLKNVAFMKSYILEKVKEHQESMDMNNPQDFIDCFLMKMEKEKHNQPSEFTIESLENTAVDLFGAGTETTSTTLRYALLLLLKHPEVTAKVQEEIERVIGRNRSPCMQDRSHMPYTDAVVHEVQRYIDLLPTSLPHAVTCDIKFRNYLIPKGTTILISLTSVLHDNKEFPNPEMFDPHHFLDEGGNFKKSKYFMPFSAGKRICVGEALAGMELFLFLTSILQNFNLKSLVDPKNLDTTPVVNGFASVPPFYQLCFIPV
T2 sequence (P23458 whole entry): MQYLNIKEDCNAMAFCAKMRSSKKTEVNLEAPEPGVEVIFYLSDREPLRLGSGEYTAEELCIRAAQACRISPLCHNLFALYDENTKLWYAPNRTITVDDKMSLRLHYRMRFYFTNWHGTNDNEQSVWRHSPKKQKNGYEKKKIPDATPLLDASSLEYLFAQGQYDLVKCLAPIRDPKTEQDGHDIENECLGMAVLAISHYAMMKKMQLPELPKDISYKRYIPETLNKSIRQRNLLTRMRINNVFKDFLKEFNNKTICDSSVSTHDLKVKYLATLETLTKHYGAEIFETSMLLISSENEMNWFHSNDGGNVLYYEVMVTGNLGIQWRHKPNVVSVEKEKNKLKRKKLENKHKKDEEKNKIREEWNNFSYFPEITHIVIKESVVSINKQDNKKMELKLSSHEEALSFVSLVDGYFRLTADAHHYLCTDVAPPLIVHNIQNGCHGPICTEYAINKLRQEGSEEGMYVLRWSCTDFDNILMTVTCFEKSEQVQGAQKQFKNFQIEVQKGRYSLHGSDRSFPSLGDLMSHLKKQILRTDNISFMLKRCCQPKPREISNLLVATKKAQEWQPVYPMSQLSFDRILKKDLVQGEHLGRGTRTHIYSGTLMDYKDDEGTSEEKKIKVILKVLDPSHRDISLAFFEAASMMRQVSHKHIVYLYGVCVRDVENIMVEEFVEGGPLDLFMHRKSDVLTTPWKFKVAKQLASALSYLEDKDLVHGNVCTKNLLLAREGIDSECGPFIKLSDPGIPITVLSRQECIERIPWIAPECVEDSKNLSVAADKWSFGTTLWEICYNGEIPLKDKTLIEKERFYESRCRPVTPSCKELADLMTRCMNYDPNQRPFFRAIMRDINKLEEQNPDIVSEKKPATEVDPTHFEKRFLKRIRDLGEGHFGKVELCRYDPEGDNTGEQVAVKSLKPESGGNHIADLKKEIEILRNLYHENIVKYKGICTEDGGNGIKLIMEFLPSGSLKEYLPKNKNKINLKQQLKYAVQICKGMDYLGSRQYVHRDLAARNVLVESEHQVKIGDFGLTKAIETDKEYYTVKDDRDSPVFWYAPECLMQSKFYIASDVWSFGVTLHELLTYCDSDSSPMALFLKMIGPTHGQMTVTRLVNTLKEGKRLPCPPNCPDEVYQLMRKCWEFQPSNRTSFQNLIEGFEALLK
T7 sequence (O60674 whole entry V617F): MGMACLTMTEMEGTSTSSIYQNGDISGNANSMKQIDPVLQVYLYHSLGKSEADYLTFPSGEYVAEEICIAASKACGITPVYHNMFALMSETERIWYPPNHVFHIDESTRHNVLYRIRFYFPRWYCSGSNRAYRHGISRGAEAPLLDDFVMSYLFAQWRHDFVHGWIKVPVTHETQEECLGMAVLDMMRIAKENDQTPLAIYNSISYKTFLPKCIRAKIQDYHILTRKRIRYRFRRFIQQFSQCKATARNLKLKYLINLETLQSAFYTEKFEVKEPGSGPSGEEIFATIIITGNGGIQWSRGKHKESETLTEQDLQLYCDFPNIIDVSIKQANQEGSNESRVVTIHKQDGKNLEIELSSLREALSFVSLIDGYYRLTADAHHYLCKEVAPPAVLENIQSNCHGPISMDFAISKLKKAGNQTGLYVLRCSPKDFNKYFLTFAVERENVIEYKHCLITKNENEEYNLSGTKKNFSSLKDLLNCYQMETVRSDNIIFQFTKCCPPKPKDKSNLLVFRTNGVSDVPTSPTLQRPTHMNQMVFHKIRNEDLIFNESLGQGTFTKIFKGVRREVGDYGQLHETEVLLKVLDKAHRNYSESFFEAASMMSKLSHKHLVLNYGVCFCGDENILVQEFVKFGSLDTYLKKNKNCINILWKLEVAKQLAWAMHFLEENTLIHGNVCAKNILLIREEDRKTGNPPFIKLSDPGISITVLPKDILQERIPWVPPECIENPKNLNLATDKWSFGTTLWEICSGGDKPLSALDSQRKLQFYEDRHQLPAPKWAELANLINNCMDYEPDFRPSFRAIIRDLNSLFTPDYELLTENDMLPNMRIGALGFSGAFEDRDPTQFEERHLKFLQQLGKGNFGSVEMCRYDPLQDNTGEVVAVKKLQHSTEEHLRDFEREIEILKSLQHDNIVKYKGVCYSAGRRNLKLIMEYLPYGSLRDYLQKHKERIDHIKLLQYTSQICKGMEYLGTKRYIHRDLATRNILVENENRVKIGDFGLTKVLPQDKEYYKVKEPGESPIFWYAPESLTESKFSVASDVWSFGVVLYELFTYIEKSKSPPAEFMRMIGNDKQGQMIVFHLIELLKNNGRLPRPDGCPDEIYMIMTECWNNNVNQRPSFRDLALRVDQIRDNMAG
T5 sequence (O60674 whole entry): as the sequence (O60674 whole entry V617F) above, with F617V counted along it
T4 sequence (P29597 whole entry): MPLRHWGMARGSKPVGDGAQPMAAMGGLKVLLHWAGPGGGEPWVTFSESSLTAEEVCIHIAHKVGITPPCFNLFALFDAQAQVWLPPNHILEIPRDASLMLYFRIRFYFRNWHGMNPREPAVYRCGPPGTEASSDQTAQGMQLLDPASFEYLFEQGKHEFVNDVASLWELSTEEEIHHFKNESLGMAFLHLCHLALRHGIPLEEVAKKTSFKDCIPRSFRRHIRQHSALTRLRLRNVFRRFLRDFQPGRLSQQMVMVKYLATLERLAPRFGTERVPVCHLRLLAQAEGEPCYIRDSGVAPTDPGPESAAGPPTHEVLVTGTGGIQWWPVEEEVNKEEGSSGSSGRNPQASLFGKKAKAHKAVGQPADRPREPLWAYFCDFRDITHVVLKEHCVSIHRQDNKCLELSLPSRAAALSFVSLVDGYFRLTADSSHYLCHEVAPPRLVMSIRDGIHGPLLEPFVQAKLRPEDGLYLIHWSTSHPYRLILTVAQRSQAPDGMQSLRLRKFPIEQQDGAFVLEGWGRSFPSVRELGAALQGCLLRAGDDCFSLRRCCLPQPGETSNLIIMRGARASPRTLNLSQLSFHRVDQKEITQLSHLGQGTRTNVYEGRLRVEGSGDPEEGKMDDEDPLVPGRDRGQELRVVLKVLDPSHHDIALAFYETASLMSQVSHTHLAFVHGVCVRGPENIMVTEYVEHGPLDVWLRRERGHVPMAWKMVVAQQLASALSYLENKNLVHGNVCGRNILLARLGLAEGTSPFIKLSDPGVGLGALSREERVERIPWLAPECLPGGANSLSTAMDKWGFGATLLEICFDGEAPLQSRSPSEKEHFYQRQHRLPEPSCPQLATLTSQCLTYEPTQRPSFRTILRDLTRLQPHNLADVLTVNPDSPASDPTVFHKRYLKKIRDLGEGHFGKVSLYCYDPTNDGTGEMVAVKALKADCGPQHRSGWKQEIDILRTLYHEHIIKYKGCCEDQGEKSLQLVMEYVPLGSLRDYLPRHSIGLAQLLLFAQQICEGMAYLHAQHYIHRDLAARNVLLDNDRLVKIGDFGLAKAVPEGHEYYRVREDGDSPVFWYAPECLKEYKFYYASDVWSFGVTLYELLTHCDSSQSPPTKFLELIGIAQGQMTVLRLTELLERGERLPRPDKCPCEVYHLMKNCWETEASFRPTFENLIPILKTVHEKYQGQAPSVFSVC

Compound: C[C@@H](C#N)NC(=O)c1ccc(-c2nc(Nc3cnn(C4CCN(C)CC4)c3)ncc2Cl)cc1 [Example 43, (S)-4-(5-Chloro-2-((1-(1-methylpiperidin-4-yl)-1H-pyrazol-4-yl)amino)pyrimidin-4-yl)-N-(1-cyanoethyl)benzamide]
IC50 [1]: > 50000 nM | IC50 [2, 8]: 11.2 nM | IC50 [3]: > 50000 nM | IC50 [4]: 29 nM | IC50 [5, 9]: 0.57 nM | IC50 [6]: > 50000 nM | IC50 [7]: 45.2 nM

Compound: C[C@@H](C#N)NC(=O)c1ccc(-c2nc(Nc3cnn(C4CC4)c3)ncc2Cl)cc1 [Example 111, (S)-4-(5-Chloro-2-((1-cyclopropyl-1H-pyrazol-4-yl)amino)pyrimidin-4-yl)-N-(1-cyanoethyl)benzamide]
IC50 [2, 8]: 8.64 nM | IC50 [4]: 43.3 nM | IC50 [5, 9]: 2.79 nM | IC50 [7]: 31.4 nM

Compound: Cn1cc(Nc2ncc(Cl)c(-c3ccc(C(=O)NCC#N)cc3)n2)cn1 [Example 34, 4-(5-Chloro-2-((1-methyl-1H-pyrazol-4-yl)amino)pyrimidin-4-yl)-N-(cyanomethyl)benzamide]
IC50 [2, 8]: 11.8 nM | IC50 [4]: 98.4 nM | IC50 [5, 9]: 24.4 nM | IC50 [5, 10]: 0.7 nM

Compound: Cc1cnc(Nc2cnn(CC#N)c2)nc1-c1ccc(C(=O)NCC#N)cc1 [Example 4, N-(Cyanomethyl)-4-(2-((1-(cyanomethyl)-1H-pyrazol-4-yl)amino)-5-methylpyrimidin-4-yl)benzamide]
IC50 [1]: > 50000 nM | IC50 [2, 8]: 8.75 nM | IC50 [2, 11]: 1.73 nM | IC50 [3]: 45800 nM | IC50 [4]: 62.9 nM | IC50 [5, 9]: 43 nM | IC50 [5, 10]: 2.04 nM | IC50 [6]: > 50000 nM | IC50 [7]: 109 nM

Compound: CC[C@@H](C#N)NC(=O)c1ccc(-c2nc(Nc3cnn(C4CC4)c3)ncc2Cl)cc1 [Example 61, (S)-4-(5-chloro-2-((1-cyclopropyl-1H-pyrazol-4-yl)amino)pyrimidin-4-yl)-N-(1-cyanopropyl)benzamide]
IC50 [2, 8]: 5.81 nM | IC50 [4]: 52.8 nM | IC50 [5, 9]: 4.73 nM | IC50 [7]: 34.8 nM

Compound: CNC(=O)c1ccc(-c2nc(Nc3cnn(C)c3)ncc2C)cc1 [Example 10, N-Methyl-4-(5-methyl-2-((1-methyl-1H-pyrazol-4-yl)amino)pyrimidin-4-yl)benzamide]
IC50 [2, 8]: > 5000 nM | IC50 [4]: > 5000 nM | IC50 [5, 9]: > 5000 nM | IC50 [5, 10]: 30 nM | IC50 [7]: > 5000 nM

Compound: N#CCNC(=O)c1ccc(-c2nc(Nc3cnn(C4CC4)c3)ncc2Cl)cc1 [Example 95, 4-(5-Chloro-2-((1-cyclopropyl-1H-pyrazol-4-yl)amino)pyrimidin-4-yl)-N-(cyanomethyl)benzamide]
IC50 [2, 8]: 7.29 nM | IC50 [4]: 58.9 nM | IC50 [5, 9]: 4.48 nM | IC50 [7]: 25.3 nM

Other lines, results leading:

IC50 [2, 8]: > 5000 nM | IC50 [2, 11]: 1890 nM | IC50 [4]: > 5000 nM | IC50 [5, 9]: 4520 nM | IC50 [5, 10]: 149 nM | IC50 [7]: > 5000 nM
Compound: CCNC(=O)c1ccc(-c2nc(Nc3cnn(C)c3)ncc2C)cc1 [Example 222, N-ethyl-4-(5-methyl-2-((1-methyl-1H-pyrazol-4-yl)amino)pyrimidin-4-yl)benzamide]

IC50 [1]: 19000 nM | IC50 [2, 8]: 5.94 nM | IC50 [3]: > 50000 nM | IC50 [4]: 65 nM | IC50 [5, 9]: 1.16 nM | IC50 [6]: > 50000 nM
Compound: C[C@@H](C#N)NC(=O)c1ccc(-c2nc(Nc3cnn(C4CCNCC4)c3)ncc2Cl)cc1 [Example 165, (S)-4-(5-chloro-2-((1-(piperidin-4-yl)-1H-pyrazol-4-yl)amino)pyrimidin-4-yl)-N-(1-cyanoethyl)benzamide]

IC50 [2, 8]: 18.9 nM | IC50 [4]: 146 nM | IC50 [5, 9]: 41.2 nM | IC50 [5, 10]: 1.48 nM
Compound: C[C@@H](C#N)NC(=O)c1ccc(-c2nc(Nc3cnn(C)c3)ncc2Cl)cc1 [Example 125, (S)-4-(5-chloro-2-((1-methyl-1H-pyrazol-4-yl)amino)pyrimidin-4-yl)-N-(1-cyanoethyl)benzamide]

IC50 [1]: 3180 nM | IC50 [2, 8]: 1.95 nM | IC50 [3]: > 50000 nM | IC50 [4]: 2.29 nM | IC50 [5, 9]: 0.42 nM | IC50 [6]: > 50000 nM
Compound: CC[C@@H](C#N)NC(=O)c1ccc(-c2nc(Nc3cnn(C4CCNCC4)c3)ncc2Cl)cc1 [Example 183, (S)-4-(5-chloro-2-((1-(piperidin-4-yl)-1H-pyrazol-4-yl)amino)pyrimidin-4-yl)-N-(1-cyanopropyl)benzamide]

IC50 [1]: > 50000 nM | IC50 [2, 8]: 8.45 nM | IC50 [3]: > 50000 nM | IC50 [4]: 5.15 nM | IC50 [5, 9]: < 0.25 nM | IC50 [6]: > 50000 nM | IC50 [7]: 0.96 nM
Compound: Cc1cnc(Nc2cnn(C3CCN(C(=O)CO)CC3)c2)nc1-c1ccc(C(=O)N[C@@H](C)C#N)cc1 [Example 119, (S)—N-(1-cyanoethyl)-4-(2-((1-(1-(2-hydroxyacetyl)piperidin-4-yl)-1H-pyrazol-4-yl)amino)-5-methylpyrimidin-4-yl)benzamide]

IC50 [2, 8]: 3940 nM | IC50 [4]: > 5000 nM | IC50 [5, 9]: 1450 nM | IC50 [7]: 4540 nM
Compound: Cc1cnc(Nc2cnn(C)c2)nc1-c1ccc(C(=O)NC(C)C)cc1 [Example 223, N-isopropyl-4-(5-methyl-2-((1-methyl-1H-pyrazol-4-yl)amino)pyrimidin-4-yl)benzamide]

IC50 [1]: 14100 nM | IC50 ([2]; read-out: IC50 JAK1 (5 nM) (1 m MATP), JAK1 5 nM, 1 mM ATP): 10.4 nM | IC50 [3]: > 50000 nM | IC50 [4]: 1.66 nM | IC50 [5, 9]: < 0.25 nM | IC50 [6]: 6360 nM
Compound: Cc1cnc(Nc2cnn(C3CC(C)(C)OC(C)(C)C3)c2)nc1-c1ccc(C(=O)NCC#N)cc1 [Example 113, N-(cyanomethyl)-4-(5-methyl-2-((1-(2,2,6,6-tetramethyltetrahydro-2H-pyran-4-yl)-1H-pyrazol-4-yl)amino)pyrimidin-4-yl)benzamide]

IC50 [1]: > 50000 nM | IC50 [2, 8]: 0.61 nM | IC50 [3]: > 50000 nM | IC50 [4]: 1.34 nM | IC50 [5, 9]: 0.37 nM | IC50 [6]: > 50000 nM
Compound: CC[C@@H](C#N)NC(=O)c1ccc(-c2nc(Nc3cnn(C4CCN(C)CC4)c3)ncc2C)cc1 [Example 184, (S)—N-(1-Cyanopropyl)-4-(5-methyl-2-((1-(1-methylpiperidin-4-yl)-1H-pyrazol-4-yl)amino)pyrimidin-4-yl)benzamide]
